Tested on: sepsis patients
Test: VANISH trial survival analysis, hydrocortisone vs placebo, by patient subtype classifier
Format: in vivo, human
Design: mortality reduction in the placebo group in comparison to the hydrocortisone group / Mortality rate: concentration or dose not given beside the values
Conditions: for Alive / Dead / Mortality rate / Survival rate / Mortality Reduction Group: VANISH trial; for Alive / Dead / Mortality rate / Survival rate: Hydro group; for 28-day mortality reduction in the placebo group in comparison to the hydrocortisone group: VANISH; for Mortality Reduction Group: arm with lower mortality, Hydro vs Placebo
Excerpt: The test expression data from each trial were normalized by the platform normalization matrix described above^13 so that the test data were more consistent with the training data. The classifiers (e.g., the Full Model, the SS Model, the S Model, and the P Model) were then applied to the normalized data such that the patients were classified into A, B, and C subtypes. […] Therefore, each sample in the target samples was normalized independently with the normalization matrix of the sample array platform.
Survival and mortality rates were calculated at day 28 because survival and mortality labels at other time points were not available. […] Binomial and Chi-squared with continuity correction tests were used to test for the significance of these differences.
In one example, previously identified subtypes of sepsis patients were used to tune the model to identify these type A and B patients. Two distinct sepsis response signatures (SRS1 and SRS2) were identified in five public studies (E-MTAB-4421, E-MTAB-4451, E-MTAB-5273, E-MTAB-5274, and E-MTAB-7581), where HumanHT-12 v4 BeadChip were used to generate the gene expression profiles of the patient samples. The processed data of those five studies were downloaded and processed using R programming language and software environment for statistical analysis (version 3.6.3). The Bioconductor annotation package, illuminaHumanv4.db (version 1.26.0), was used to annotate microarray probes and expression levels of genes were determined by each individual probe or mean of probes belonging to the same gene. In order to remove cohort biases, the Bioconductor package, limma (version 3.42.2), was used to remove batch effects. Using ss.b2 panel genes, subtype A, B, and C scores were calculated by geometric mean of up/down genes.
To build the classifier, we defined E-MTAB-4421, E-MTAB-4451, E-MTAB-5273, and E-MTAB-5274 as the training dataset and VANISH (E-MTAB-7581) as the testing dataset. We used features (subtype A, B, and C scores) and class labels (SRS1 vs SRS2) in the training dataset to build a machine-learned classifier based on support-vector machine (SVM) method. SVM is a supervised machine learning method for classification analysis. The algorithm finds a single or a set of hyperplanes that maximize the margin among subtype A, B, and C scores. In order to capture non-linear data, the kernel function was used. R package e1071 was used to build the SVM classifier with following parameters: method=“C-classification”, kernal=“radial”, gamma=0.1, and cost=10.
The accuracy of the classifiers was evaluated by Leave-One-Out (LOO) cross-validation over the training dataset. Also the classifier was applied to 117 controlled samples from VANISH trial.
In addition to the SVM-method, thresholds can be employed to scores in order to define A vs. B labels. […] Therefore we applied a heuristic threshold (threshold=0) to subtype A and B scores to classify SRS1-like and SRS2-like in VANISH: SRS2-like label was assigned to samples with subtype A score >0 and subtype B score <0 and SRS1-like label was assigned to the rest of samples.
Besides the heuristic threshold, we also derived the thresholds for subtype A and B scores using the training dataset. Same as the SVM method, we defined E-MTAB-4421, E-MTAB-4451, E-MTAB-5273, and E-MTAB-5274 as the training dataset and VANISH (E-MTAB-7581) as the testing dataset.

[1] = day 28, Full Model, subtypes CA
[2] = day 28, SS.B2 Model (SVM), Total
[3] = day 28, SS.B2 Model (SVM), type A (SRS2-like)
[4] = day 28, SS.B2 Model (SVM), type B (SRS1-like)

**Q.** What does the source list for `C[C@]12CCC(=O)C=C1CC[C@@H]1[C@@H]2[C@@H](O)C[C@@]2(C)[C@H]1CC[C@]2(O)C(=O)CO` [Hydro, hydrocortisone]?
**A.** Alive (day 28, Full Model, subtype C): 11; Dead (day 28, Full Model, subtype C): 8; Mortality rate (day 28, Full Model, subtype C): 42.1%; Survival rate (day 28, Full Model, subtype C): 57.9%; Alive [1]: 20; Dead [1]: 16; Mortality rate [1]: 44.4%; Survival rate [1]: 55.6%; Alive (day 28, P Model, Total): 36; Dead (day 28, P Model, Total): 22; Mortality rate (day 28, P Model, Total): 37.9%; Survival rate (day 28, P Model, Total): 62.1%; Alive (day 28, P Model, subtype A): 9; Dead (day 28, P Model, subtype A): 10; Mortality rate (day 28, P Model, subtype A): 52.6%; Survival rate (day 28, P Model, subtype A): 47.4%; Alive (day 28, P Model, subtype B): 23; Dead (day 28, P Model, subtype B): 8; Mortality rate (day 28, P Model, subtype B): 25.8%; Survival rate (day 28, P Model, subtype B): 74.2%; Alive (day 28, P Model, subtype C): 4; Dead (day 28, P Model, subtype C): 4; Mortality rate (day 28, P Model, subtype C): 50.0%; Survival rate (day 28, P Model, subtype C): 50.0%; Alive (day 28, P Model, subtypes CA): 13; Dead (day 28, P Model, subtypes CA): 14; Mortality rate (day 28, P Model, subtypes CA): 51.9%; Survival rate (day 28, P Model, subtypes CA): 48.1%; Alive (day 28, S Model, Total): 20; Dead (day 28, S Model, Total): 13; Mortality rate (day 28, S Model, Total): 39.4%; Survival rate (day 28, S Model, Total): 60.6%; Alive (day 28, S Model, subtype A): 16; Dead (day 28, S Model, subtype A): 9; Mortality rate (day 28, S Model, subtype A): 36.0%; Survival rate (day 28, S Model, subtype A): 64.0%; Alive (day 28, S Model, subtype B): 12; Dead (day 28, S Model, subtype B): 9; Mortality rate (day 28, S Model, subtype B): 42.9%; Survival rate (day 28, S Model, subtype B): 57.1%; Alive (day 28, S Model, subtype C): 8; Dead (day 28, S Model, subtype C): 4; Survival rate (day 28, S Model, subtype C): 66.7%; Alive (day 28, S Model, subtypes CA): 8; Dead (day 28, S Model, subtypes CA): 4; Survival rate (day 28, S Model, subtypes CA): 66.7%; Alive (day 28, SS Model, Total): 36; Dead (day 28, SS Model, Total): 22; Mortality rate (day 28, SS Model, Total): 37.9%; Survival rate (day 28, SS Model, Total): 62.1%; Alive (day 28, SS Model, subtype A): 15; Dead (day 28, SS Model, subtype A): 9; Mortality rate (day 28, SS Model, subtype A): 37.5%; Survival rate (day 28, SS Model, subtype A): 62.5%; Alive (day 28, SS Model, subtype B): 5; Dead (day 28, SS Model, subtype B): 5; Mortality rate (day 28, SS Model, subtype B): 50.0%; Survival rate (day 28, SS Model, subtype B): 50.0%; Alive (day 28, SS Model, subtype C): 16; Dead (day 28, SS Model, subtype C): 8; Survival rate (day 28, SS Model, subtype C): 66.7%; Alive (day 28, SS Model, subtypes CA): 31; Dead (day 28, SS Model, subtypes CA): 17; Survival rate (day 28, SS Model, subtypes CA): 64.6%; Alive [2]: 36; Dead [2]: 22; Mortality rate [2]: 37.9%; Survival rate [2]: 62.1%; Alive [3]: 22; Dead [3]: 14; Mortality rate [3]: 38.9%; Survival rate [3]: 61.1%; Alive [4]: 14; Dead [4]: 8; Mortality rate [4]: 36.4%; Survival rate [4]: 63.6%; 28-day mortality reduction in the placebo group in comparison to the hydrocortisone group (SRS2-like patients by ROC-derived thresholds (A threshold=-0.2664, B threshold=0.3179)): 81.7%; 28-day mortality reduction in the placebo group in comparison to the hydrocortisone group (SRS2-like patients by heuristic threshold=0 (A score >0, B score <0)): 85.2%; Mortality Reduction Group (day 28, Full Model, Total): Placebo; Mortality Reduction Group (day 28, Full Model, subtype A): Placebo; Mortality Reduction Group (day 28, Full Model, subtype B): Hydro; Mortality Reduction Group (day 28, Full Model, subtype C): Placebo; Mortality Reduction Group [1]: Placebo; Mortality Reduction Group (day 28, P Model, Total): Placebo; Mortality Reduction Group (day 28, P Model, subtype A): Placebo; Mortality Reduction Group (day 28, P Model, subtype B): Hydro; Mortality Reduction Group (day 28, P Model, subtype C): Placebo; Mortality Reduction Group (day 28, P Model, subtypes CA): Placebo; Mortality Reduction Group (day 28, SS Model, Total): Placebo; Mortality Reduction Group (day 28, SS Model, subtype A): Placebo; Mortality Reduction Group (day 28, SS Model, subtype B): Placebo; Mortality Reduction Group (day 28, SS Model, subtype C): Placebo; Mortality Reduction Group (day 28, SS Model, subtypes CA): Placebo; Mortality Reduction Group [2]: Placebo; Mortality Reduction Group [3]: Placebo; Mortality Reduction Group [4]: Hydro; lower mortality in the placebo group when compared to the hydrocortisone therapy group (sepsis patients, 28-day, subtype A, Full Model): 64.6%; lower mortality in the placebo group when compared to the hydrocortisone therapy group (sepsis patients, 28-day, subtype A, P Model): 77.6%; lower mortality in the placebo group when compared to the hydrocortisone therapy group (sepsis patients, 28-day, subtype A, S Model): 86.1%; lower mortality in the placebo group when compared to the hydrocortisone therapy group (sepsis patients, 28-day, subtype A, SS Model): 86.0%; lower mortality in the hydrocortisone group when compared to the placebo group (sepsis patients, 28-day, subtype B, Full Model): 35.2%; lower mortality in the placebo group when compared to the hydrocortisone therapy group (sepsis patients, 28-day, subtype C, Full Model): 56.8%
